Data on 15 molecules can be found in patent US20220324835A1 (Nurix Therapeutics, Inc., priority 2018, published 2022).

Assay [1] concerns the target T1, Cbl-b (Homo sapiens, UniProt Q13191). Kind of assay: Cbl-b activity assay (Cbl-b inhibition assay), TR-FRET of Cbl-b interaction with UbcH5B-Ub. Type of assay: biochemical. Summed up:
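TR-FRET readout of Cbl-b binding to Bodipy-fluorescein N-terminally labeled Ub conjugated to UbcH5B C85K, measured with compound present. After compound incubation, 60 nM Src kinase with 1 mM ATP and 5 mM MgCl2 (final) was added for 1.5 h, then a further 1 h incubation; asterisked values used 50 mM NaCl buffer and 30 nM Src.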
Background: TR-FRET usually uses a lanthanide donor and a delayed reading to cut background.

The target in the next assay is Cbl-b (residues 36-427) (Homo sapiens, UniProt Q13191). Kind of assay: Cbl-b binding assay (SPR, Biacore T200). The note with it: 20° C., 1:1 binding model. Here is the method:
SPR data was collected on a Biacore T200 (GE Healthcare) using a NeutrAvidin (Invitrogen) capture surface that was generated on a polycarboxylate hydrogel sensor chip of medium charge density (XanTec Bioanalytics GmbH) at 20° C. The surface was prepared using 20 mM HEPES, pH 7.5, 100 mM NaCl, 0.5 mM TCEP, 0.01% Triton X-100 as the immobilization buffer. Neutravidin was coupled to the sensor chip through EDC/NHS amine coupling. All steps were performed using a flow rate of 10 μl/min. First, the chip was preconditioned with a 3-min injection of 1 M NaCl, 0.1 M Borate followed by a 10-min equilibration in immobilization buffer. The surface was activated by a 5-min injection of 100 mM EDC/50 mM NHS. Next, 250 μg/mL NeutrAvidin buffered in 10 mM sodium acetate buffer, pH 5.0 was injected over the surface for 2 min. The surface was deactivated with 1 M Tris, pH 8.5 for 7 min then re-equilibrated in immobilization buffer for 7 min. […] Flow cell 1 served as a reference surface and was prepared without protein. All binding measurements were made in 20 mM HEPES, pH 7.5, 100 mM NaCl, 0.5 mM TCEP, 0.01% Triton X-100, 2% DMSO (referred as assay buffer) at 20° C. Compounds, prepared in assay buffer, were diluted from atop concentration of either 100 μM or 50 μM using either a 2- or 3-fold dilution scheme containing 8 or 10 points. Samples were injected for 50 s at 50 μl/min. Dissociation time varied from 90-180 s, depending on anticipated potency. The surface was regenerated by injection of 0.3 M NaCl, prepared in assay buffer for 20 s at 10 μl/min. Positive and negative control samples were run between each compound to monitor surface integrity.
Column marked with an asterisk (*) were tested as described above with assay buffer containing 50 mM NaCl instead of 100 mM NaCl and 30 nM Src kinase instead of 60 nM Src kinase. The resulting data for the Cbl-b binding assay was solvent corrected and double referenced prior to analysis. All data were globally fit to a steady-state affinity and kinetic binding model where applicable). Fit parameters were derived from a 1:1 binding model using the Biacore T200 Evaluation Software V2.0 (GE Healthcare) (Table 2).
Background: SPR reads the build-up and loss of mass on a sensor chip optically.

Assay [2] relates to T-cell. Nature of the assay: IL-2 secretion from T-cells stimulated with anti-CD3 antibody alone (Biological Example 2). In kind it is cell-based, human. The note with it: Homo sapiens, T-cell; 1 μM Cbl-b inhibitor; fold change over baseline (anti-CD3/anti-CD28 stimulated T-cells without inhibitor); read-out: IL-2 secretion Anti-CD3 stimulation.
Assay [3] deals with T-cell. Nature of the assay: CD25 cell surface staining on T-cells stimulated with anti-CD3 antibody alone (Biological Example 2). In kind it is cell-based, human. Particulars: Homo sapiens, T-cell; 1 μM Cbl-b inhibitor; fold change over baseline (anti-CD3/anti-CD28 stimulated T-cells without inhibitor); read-out: CD25 staining Anti-CD3 stimulation.
In assay [4] the target is T1, Cbl-b. Kind of assay: Cbl-b inhibition assay (Cbl-b activity assay, FRET, Biological Example 1; 100 mM NaCl, 60 nM Src kinase). Type of assay: biochemical. The note with it: upper bound stated in text lists; read-out: IC50 values in the Cbl-b inhibition assay of Biological Example 1. In short, it runs like this: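 Binding-based Cbl-b activity assay. Src-phosphorylated, N-terminally biotin-Avi-tagged Cbl-b recruits labelled UbcH5B-Ub, and proximity to streptavidin-terbium yields FRET.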

Assay [5] concerns T-cell. Kind of assay: IL-2 secretion from T-cells co-stimulated with anti-CD3 and anti-CD28 antibody (Biological Example 2). Type of assay: cell-based, human. Particulars: Homo sapiens, T-cell, fold change over baseline (anti-CD3/anti-CD28 stimulated T-cells without inhibitor), read-out: IL-2 secretion Anti-CD3/Anti-CD28 stimulation; for fold induction at 0.3 µM: 0.3 μM Cbl-b inhibitor; for fold induction at 1 µM: 1 μM Cbl-b inhibitor. In short, it runs like this:
(§1)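 No assay protocol given; T-cells stimulated with anti-CD3 alone or anti-CD3 plus anti-CD28, with or without Cbl-b inhibitor. Activation read as IL-2 secretion or CD25 surface staining, expressed as fold over baseline from uninhibited cells […].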

Assay [6] has as its system T-cell. Kind of assay: CD25 cell surface staining on T-cells co-stimulated with anti-CD3 and anti-CD28 antibody (Biological Example 2). Type of assay: cell-based, human. The note with it: Homo sapiens, T-cell, fold change over baseline (anti-CD3/anti-CD28 stimulated T-cells without inhibitor), read-out: CD25 staining Anti-CD3/Anti-CD28 stimulation; for fold induction at 0.3 µM: 0.3 μM Cbl-b inhibitor; for fold induction at 1 µM: 1 μM Cbl-b inhibitor. Summed up: as §1

Setting [7] is: assay buffer with 100 mM NaCl, 60 nM Src kinase, read-out: Cbl-b activity IC50.
Where [8] appears, read: * assay buffer containing 50 mM NaCl instead of 100 mM NaCl and 30 nM Src kinase instead of 60 nM, read-out: Cbl-b activity IC50 (μM)*.

Some results are limits rather than exact numbers.

T1 sequence (Q13191 36-427): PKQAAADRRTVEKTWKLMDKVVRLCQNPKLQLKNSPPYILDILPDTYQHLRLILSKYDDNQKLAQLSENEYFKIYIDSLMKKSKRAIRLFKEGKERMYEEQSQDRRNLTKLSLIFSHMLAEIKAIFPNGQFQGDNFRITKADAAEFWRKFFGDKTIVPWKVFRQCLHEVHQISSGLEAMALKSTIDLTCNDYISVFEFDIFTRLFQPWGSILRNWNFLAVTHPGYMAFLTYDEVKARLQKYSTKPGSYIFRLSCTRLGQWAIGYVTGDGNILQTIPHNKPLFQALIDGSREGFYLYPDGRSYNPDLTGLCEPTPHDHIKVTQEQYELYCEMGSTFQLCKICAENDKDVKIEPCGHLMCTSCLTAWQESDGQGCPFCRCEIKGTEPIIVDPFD
Sequence of Cbl-b (residues 36-427) (Q13191 36-427): as above

As a reminder, the IC50 is the concentration that gives 50% inhibition. Usually Kd stands for the constant that tells how readily two partners part at equilibrium. A low value points to a tighter complex. In the case of `C[C@@H](c1cccc(N2Cc3c(cccc3C(F)(F)F)C2=O)c1)[C@@H](F)c1nncn1C` (single isomer, unassigned) [Compound 474a], the IC50 at Cbl-b [1] (setting [7]) is less than 0.1 µM. Further, at Cbl-b (residues 36-427), the Kd was in the range of 0.1 to 0.3 µM.

Regarding `CC(Sc1nncn1C)c1cccc(NC(=O)c2cnc3ccccc3n2)c1` (stereo not drawn) [Compound 17, N-(3-(1-((4-Methyl-4H-1,2,4-triazol-3-yl)thio)ethyl)phenyl)quinoxaline-2-carboxamide], on Cbl-b [1] (setting [8]), the IC50 was in the range of 3 to 10 µM. In addition, the Kd on Cbl-b (residues 36-427) fell in the range of 3 to 10 µM.

With `C[C@H](Sc1nncn1C)c1cccc(NC(=O)c2cccc(C(F)(F)F)c2)c1` [Compound 29, (S)-N-(3-(1-((4-Methyl-4H-1,2,4-triazol-3-yl)thio)ethyl)phenyl)-3-(trifluoromethyl)benzamide], at Cbl-b [1] (setting [8]), the IC50 lay within 3 to 10 µM. In addition, the Kd on Cbl-b (residues 36-427) is greater than 10 µM.

Consider `CC(C)c1cccc(C(=O)Nc2cccc([C@H](C)Sc3nncn3C)c2)c1` [Compound 31, (S)-3-Isopropyl-N-(3-(1-((4-methyl-4H-1,2,4-triazol-3-yl)thio)ethyl)phenyl)benzamide], for which the IC50 at Cbl-b [1] (setting [8]) lay within 3 to 10 µM. The Kd at Cbl-b (residues 36-427) was greater than 10 µM.

As for `CC(Sc1nncn1C)c1ccc(F)c(NC(=O)c2ccc3ccccc3n2)c1` (stereo not drawn) [Compound 96, N-[2-fluoro-5-[1-[(4-methyl-1,2,4-triazol-3-yl)sulfanyl]ethyl]phenyl]quinoline-2-carboxamide], the IC50 at Cbl-b [1] (setting [8]) is 3 to 10 µM. The Kd on Cbl-b (residues 36-427) was greater than 10 µM.

With `COCC(Sc1nncn1C)c1cccc(NC(=O)c2cccc(C(F)(F)F)n2)c1` (stereo not drawn) [Compound 133, N-[3-[2-methoxy-1-[(4-methyl-1,2,4-triazol-3-yl)sulfanyl]ethyl]phenyl]-6-(trifluoromethyl)pyridine-2-carboxamide], the IC50 at Cbl-b [1] (setting [8]) fell in the range of 3 to 10 µM. The molecule also had a Kd at Cbl-b (residues 36-427) of 3 to 10 µM.

In the case of `CCC(Sc1nncn1C)c1cccc(NC(=O)c2ccc3ccccc3n2)c1` (stereo not drawn) [Compound 136, N-[3-[1-[(4-methyl-1,2,4-triazol-3-yl)sulfanyl]propyl]phenyl]quinoline-2-carboxamide], the 50% inhibitory concentration (IC50) on Cbl-b [1] (setting [8]) is 3 to 10 µM. Also, on Cbl-b (residues 36-427), the Kd was in the range of 3 to 10 µM.

`CCC(Sc1nncn1C)c1cccc(NC(=O)c2cc3ccccc3cn2)c1` (stereo not drawn) [Compound 137, N-[3-[1-[(4-methyl-1,2,4-triazol-3-yl)sulfanyl]propyl]phenyl]isoquinoline-3-carboxamide]: the IC50 on Cbl-b [1] (setting [8]) was in the range of 3 to 10 µM. Further, the Kd at Cbl-b (residues 36-427) lay within 3 to 10 µM.

In the case of `C[C@H](Sc1nncn1C)c1cccc(NC(=O)c2cc3cc(OCC(=O)O)ccc3cn2)c1` [Compound 305, (S)-2-((3-((3-(1-((4-methyl-4H-1,2,4-triazol-3-yl)thio)ethyl)phenyl)-carbamoyl)isoquinolin-6-yl)oxy)acetic acid], at Cbl-b [1] (setting [7]), the IC50 was 0.301 to 1 µM. The molecule also returned a Kd at Cbl-b (residues 36-427) greater than 10 µM.

Turning to `CNC(=O)COc1ccc2cnc(C(=O)Nc3cccc([C@@H](C)Sc4nncn4C)c3)cc2c1` [Compound 306b, (R)-N-(3-(1-(4-methyl-4H-1,2,4-triazol-3-ylthio)ethyl)phenyl)-6-(2-(methylamino)-2-oxoethoxy)isoquinoline-3-carboxamide], the IC50 on Cbl-b [1] (setting [7]) is 3 to 10 µM. Further, the Kd on Cbl-b (residues 36-427) was 3 to 10 µM.

For the molecule `Cc1cc(C(=O)Nc2cc(C3CC3)cc(C3(Cc4nncn4C)COC3)c2)nc(C2CC2)n1` [Example 698, 2-cyclopropyl-N-(3-cyclopropyl-5-(3-((4-methyl-4H-1,2,4-triazol-3-yl)methyl)oxetan-3-yl)phenyl)-6-methylpyrimidine-4-carboxamide], the fold induction at 1 µM in the assay with T-cell [2] is greater than 0.201; in the assay on T-cell [3], greater than 1; with T-cell [5], greater than 7.5; with T-cell [6], 1.31 to 1.5. In addition, the IC50 is no more than 0.1 µM at Cbl-b [4] and less than 0.1 µM on Cbl-b [1] (setting [7]). Moreover, the fold induction at 0.3 µM with T-cell [5] is 2.51 to 5; with T-cell [6], 1.01 to 1.3.

Turning to `Cn1cnnc1CC1(c2cccc(NC(=O)c3cc(CN4CC[C@H](F)C4)nc(C(F)(F)F)n3)c2)COC1` [Example 699, (S)-6-((3-fluoropyrrolidin-1-yl)methyl)-N-(3-(3-((4-methyl-4H-1,2,4-triazol-3-yl)methyl)oxetan-3-yl)phenyl)-2-(trifluoromethyl)pyrimidine-4-carboxamide], the fold induction at 1 µM in the assay with T-cell [2] lay within 0.051 to 0.1; in the assay with T-cell [3] it was 0.801 to 1; with T-cell [5] it was 2.51 to 5; in the assay with T-cell [6] it was 1.01 to 1.3. Further, the IC50 on Cbl-b [4] was no more than 0.1 µM; at Cbl-b [1] (setting [7]) it was less than 0.1 µM. Further, the fold induction at 0.3 µM is 1.01 to 2.5 in the assay with T-cell [5] and 1.01 to 1.3 in the assay with T-cell [6].

Regarding `Cn1cnnc1OC1(c2cccc(N3Cc4c(cc(CN5CCC(F)CC5)cc4C(F)(F)F)C3=O)c2)COC1` [Example 700, 6-((4-fluoropiperidin-1-yl)methyl)-2-(3-(3-((4-methyl-4H-1,2,4-triazol-3-yl)oxy)oxetan-3-yl)phenyl)-4-(trifluoromethyl)isoindolin-1-one], the fold induction at 1 µM in the assay with T-cell [2] was less than 0.05; in the assay with T-cell [3], 0.601 to 0.8; in the assay on T-cell [5], 2.51 to 5; with T-cell [6], 1.31 to 1.5. The IC50 is no more than 0.3 µM at Cbl-b [4] and 0.1 to 0.3 µM at Cbl-b [1] (setting [7]). Further, the fold induction at 0.3 µM in the assay with T-cell [5] lay in the range of 1.01 to 2.5; with T-cell [6] it was 1.01 to 1.3.

Consider `COc1cccc2c1CN(Cc1cc3c(c(C(F)(F)F)c1)CN(c1cccc(C4(Cc5nncn5C)COC4)c1)C3=O)C2` [Example 702, 6-((4-methoxyisoindolin-2-yl)methyl)-2-(3-(3-((4-methyl-4H-1,2,4-triazol-3-yl)methyl)oxetan-3-yl)phenyl)-4-(trifluoromethyl)isoindolin-1-one], for which the fold induction at 1 µM with T-cell [2] is greater than 0.201; with T-cell [3] it was greater than 1; in the assay on T-cell [5], greater than 7.5; in the assay with T-cell [6] it was 1.51 to 1.75. Moreover, the values for the IC50 at Cbl-b [4] and on Cbl-b [1] (setting [7]) were no more than 0.1 µM and less than 0.1 µM, respectively. For the same molecule, the fold induction at 0.3 µM with T-cell [5] is 5 to 7.5; in the assay with T-cell [6], 1.51 to 1.75.

On to `Cn1cnnc1CC1(c2cccc(N3Cc4c(cc(CN5CCOC6(CCC6)C5)cc4C(F)(F)F)C3=O)c2)COC1` [Example 703, 6-((5-oxa-8-azaspiro[3.5]nonan-8-yl)methyl)-2-(3-(3-((4-methyl-4H-1,2,4-triazol-3-yl)methyl)oxetan-3-yl)phenyl)-4-(trifluoromethyl)isoindolin-1-one], for which the fold induction at 1 µM was greater than 0.201 in the assay on T-cell [2], greater than 1 with T-cell [3], greater than 7.5 in the assay on T-cell [5] and 1.01 to 1.3 in the assay on T-cell [6]. The values for the IC50 on Cbl-b [4] and on Cbl-b [1] (setting [7]) were no more than 0.1 µM and less than 0.1 µM, respectively. Further, the fold induction at 0.3 µM with T-cell [5] was greater than 7.5; in the assay on T-cell [6] it was 1.01 to 1.3.
